Assay results taken from article PMC6067974 (Neuropharmacology, 2018).

Columns and labels:
[1] = target: T1, mouse A1AR (Mus musculus, UniProt Q60612); test: Radioligand binding, mouse A1AR; conditions: ratio of rat Ki to mouse Ki at A1AR
T1 sequence (Q60612 1-326): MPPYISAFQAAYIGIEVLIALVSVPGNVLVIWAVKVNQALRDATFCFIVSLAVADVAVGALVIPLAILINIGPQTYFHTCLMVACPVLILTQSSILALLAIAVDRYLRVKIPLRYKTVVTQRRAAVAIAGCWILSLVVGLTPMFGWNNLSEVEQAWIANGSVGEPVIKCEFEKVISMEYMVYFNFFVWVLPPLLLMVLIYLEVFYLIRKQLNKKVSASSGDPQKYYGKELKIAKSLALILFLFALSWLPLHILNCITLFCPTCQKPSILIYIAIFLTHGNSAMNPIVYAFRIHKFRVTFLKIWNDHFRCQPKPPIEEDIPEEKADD

[2] = target: serotonin transporter (SERT) (Homo sapiens, UniProt P31645); test: PDSP off-target radioligand binding, serotonin transporter
Sequence of serotonin transporter (SERT) (P31645 whole entry): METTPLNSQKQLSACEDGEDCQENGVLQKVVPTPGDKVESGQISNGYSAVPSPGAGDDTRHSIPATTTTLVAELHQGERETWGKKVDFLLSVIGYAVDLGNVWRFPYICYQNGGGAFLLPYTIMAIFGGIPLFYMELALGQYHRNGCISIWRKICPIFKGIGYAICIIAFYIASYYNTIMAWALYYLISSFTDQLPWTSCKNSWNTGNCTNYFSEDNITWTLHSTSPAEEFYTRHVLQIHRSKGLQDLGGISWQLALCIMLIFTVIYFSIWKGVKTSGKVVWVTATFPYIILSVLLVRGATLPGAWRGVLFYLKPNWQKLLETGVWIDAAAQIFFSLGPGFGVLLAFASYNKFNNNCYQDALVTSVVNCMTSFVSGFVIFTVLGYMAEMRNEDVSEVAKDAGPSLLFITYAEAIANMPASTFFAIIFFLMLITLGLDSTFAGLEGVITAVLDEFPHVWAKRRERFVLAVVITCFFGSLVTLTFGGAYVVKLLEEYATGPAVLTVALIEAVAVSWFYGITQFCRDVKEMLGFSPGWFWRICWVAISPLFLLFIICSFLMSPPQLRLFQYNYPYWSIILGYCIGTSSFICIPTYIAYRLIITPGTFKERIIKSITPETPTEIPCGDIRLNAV

[3] = tested on: mouse A2BAR; test: Cell-based assay at mouse A2BAR; conditions: EC50 2.8 nM vs Ki 136 nM
[4] = tested on: mice; test: Telemetric monitoring of Tb and physical activity in mice; format: in vivo, mouse
[5] = tested on: hypothalamic neurons (Fos); test: Drug-induced neuronal activation; format: in vivo, mouse; conditions: BAY60-6583 0.004 mg/kg i.c.v.; Adora1−/−;Adora3−/− mice; 1 h; vs vehicle
[6] = target: mouse A2AAR (Mus musculus, UniProt Q60613); conditions: read-out: mouse Ki, A2AAR, ref Alnouri et al., 2015; cited from earlier work
Sequence of mouse A2AAR (Q60613 whole entry): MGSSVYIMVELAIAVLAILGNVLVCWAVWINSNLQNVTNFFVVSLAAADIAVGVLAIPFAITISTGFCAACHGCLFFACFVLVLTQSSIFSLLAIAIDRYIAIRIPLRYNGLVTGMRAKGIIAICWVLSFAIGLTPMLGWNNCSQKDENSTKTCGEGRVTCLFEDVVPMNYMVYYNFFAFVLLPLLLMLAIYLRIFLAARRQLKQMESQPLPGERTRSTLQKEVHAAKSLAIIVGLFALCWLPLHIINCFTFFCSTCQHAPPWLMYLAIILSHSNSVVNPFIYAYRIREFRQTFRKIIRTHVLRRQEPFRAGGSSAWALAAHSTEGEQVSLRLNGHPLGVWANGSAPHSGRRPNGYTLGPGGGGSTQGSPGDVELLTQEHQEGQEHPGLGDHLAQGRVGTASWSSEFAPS

[7] = target: A1AR; conditions: read-out: rat Ki, A1AR, ref Alnouri et al., 2015; cited from earlier work
[8] = tested on: mouse A2BAR; conditions: ref van der Hoeven et al., 2011, cited from earlier work
[9] = tested on: mice; test: Indirect calorimetry; conditions: BAY60-6583 1 mg/kg, i.p.; C57BL/6J mice
[10] = BAY60-6583 0.5–2 mg/kg, i.p., C57BL/6J mice

Structure (SMILES): N#Cc1c(N)nc(SCC(N)=O)c(C#N)c1-c1ccc(OCC2CC2)cc1 [BAY60-6583, 2-[6-amino-3,5-dicyano-4-[4-(cyclopropylmethoxy)phenyl]pyridin-2-ylsulfanyl]acetamide]
- A1AR rat: mouse ratio [1]: 1.5
- Ki [2]: 5600 nM
- EC50 better than the binding affinity at A2BAR [3]: 50 fold
- Tb response (hypothermia) ([4]; BAY60-6583 0.004 mg/kg i.c.v., Adora1−/−;Adora3−/− mice): more modest effects
- Tb response (hypothermia) ([4]; BAY60-6583 0.004 mg/kg, i.c.v., C57BL/6J (WT) mice): caused hypothermia
- Tb response (hypothermia) ([4]; BAY60-6583 0.04 mg/kg i.c.v., Adora1−/−;Adora3−/− mice): profound, prolonged hypothermia
- Tb response (hypothermia) ([4]; BAY60-6583 1 mg/kg, i.p., Adora2b−/− mice, 1 mg/kg): completely abolished
- Tb response (hypothermia) ([4]; BAY60-6583 1 mg/kg, i.p., KitW−sh/W−sh mice): intact
- Tb response (hypothermia) [4, 10]: dose-dependent hypothermia
- physical activity [4, 10]: hypoactivity
- i.c.v. dose as fraction of a similarly hypothermic i.p. dose ([4]; BAY60-6583, i.c.v. vs i.p.): 1/150
- Tb response (hypothermia) ([4]; BAY60-6583 i.p., Adora1−/−;Adora3−/− mice, not shown): intact
- Fos immunoreactivity, dorsomedial hypothalamus (DMH) [5]: not significantly different
- Fos immunoreactivity, ventromedial hypothalamus (VMH) [5]: not significantly different
- Fos immunostaining, paraventricular hypothalamus (PVH) [5]: increased Fos immunostaining
- Fos immunostaining, preoptic area (POA) [5]: increased Fos immunostaining
- Ki [6]: > 10000 nM
- Ki [7]: 514 nM
- adenosine receptor activation selectivity ([8]; not mouse A1AR, A2AAR, or A3AR): activate only mouse A2BAR
- EC50 ([8]; read-out: EC50 at mouse A2BAR, cell-based assay): 2.8 nM
- food intake [9]: lowered
- metabolic rate (total energy expenditure) [9]: lowered metabolic rate
- respiratory exchange ratio [9]: lowered
